Laboratory results: ChEMBL document CHEMBL1201862, “PubChem BioAssay data set” (2004)
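Step 1: Grow cells in 96-well plates. Step 2: Expose to compound for 48 hours at 5 concentrations. Step 3: Interpolate endpoints linearly; if unreached, use highest concentration. Abbreviation: GI50, concentration required for 50% inhibition of growth.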 Active and inactive are the calls of the source. No stated cut-off is given here; in the data, active = GI50 up to about 1.1 µM and inactive = higher.

Assays:
Assay in all cases: NCI-60 cell line screen, 48 h
[1] = tested on: SF-539
[2] = tested on: SK-OV-3
[3] = tested on: UO-31
[4] = tested on: HT-29
[5] = tested on: TK-10
[6] = tested on: SNB-19
[7] = tested on: K562
[8] = tested on: BT-549
[9] = tested on: PC-3
[10] = tested on: ACHN
[11] = tested on: Malme-3M
[12] = tested on: OVCAR-4
[13] = tested on: LOX IMVI
[14] = tested on: MDA-N
[15] = tested on: SF-295
[16] = tested on: A498
[17] = tested on: MCF7
[18] = tested on: EKVX
[19] = tested on: DU-145
[20] = tested on: 786-0

Measured: GI50

O=C(O)C(Oc1nc(S)nc(S)n1)(c1ccc(Cl)cc1)c1ccc(Cl)cc1
inactive: [1] > 100 µM | [2] > 100 µM | [3] > 100 µM | [4] > 100 µM | [5] > 100 µM | [6] > 100 µM | [7] > 100 µM | [8] > 100 µM | [9] > 100 µM | [10] > 100 µM | [11] > 100 µM | [12] > 100 µM | [13] > 100 µM | [14] > 100 µM | [15] > 100 µM | [16] > 100 µM | [17] > 100 µM | [18] > 100 µM | [19] > 100 µM | [20] > 100 µM

N#Cc1c(SCc2ccccc2)nc(-c2ccccc2)[nH]c1=S
inactive: [1] 25.2 µM | [2] 23.4 µM | [3] 17.8 µM | [4] 28.4 µM | [5] 32.7 µM | [6] 29.9 µM | [7] 31.6 µM | [8] 20.6 µM | [9] 18.7 µM | [10] 23 µM | [11] 37.2 µM | [12] 30.9 µM | [13] 30 µM | [14] 22.6 µM | [15] 22.4 µM | [16] 27.3 µM | [17] 26.1 µM | [18] 31.5 µM | [19] 42 µM | [20] 22.3 µM

COC(=O)CCc1cc(OC)c2oc(-c3ccc(OC)c(OC)c3)c(CO)c2c1
inactive: [1] > 100 µM | [2] > 100 µM | [3] > 100 µM | [4] > 100 µM | [5] > 100 µM | [6] > 100 µM | [7] > 100 µM | [8] > 100 µM | [9] > 100 µM | [10] > 100 µM | [11] > 100 µM | [12] > 100 µM | [13] > 100 µM | [14] > 100 µM | [15] > 100 µM | [16] > 100 µM | [17] > 100 µM | [18] > 100 µM | [19] > 100 µM | [20] > 100 µM

COc1cc(C#CC(=O)OC/C=C/c2ccc3c(c2)OCO3)cc(OC)c1OC
inactive: [1] 20.7 µM | [2] 27.6 µM | [3] 15.6 µM | [4] > 100 µM | [5] 21.4 µM | [6] 42.9 µM | [7] 28.9 µM | [8] 19.4 µM | [9] 21.8 µM | [10] 29.2 µM | [11] 20.7 µM | [12] 59.7 µM | [13] 20.1 µM | [14] 18.5 µM | [15] 36.1 µM | [16] 5.53 µM | [17] 19.5 µM | [18] 31.6 µM | [19] 42.6 µM | [20] 29.8 µM

C=C1CC(CN2CCC(=O)NC2=O)(c2ccccc2)OC1=O (stereo not given)
inactive: [1] 13.7 µM | [2] 16.5 µM | [3] 18 µM | [4] 7.71 µM | [5] 5.94 µM | [6] > 41.4 µM | [7] 2.39 µM | [8] 7.21 µM | [9] 16.1 µM | [10] 9.16 µM | [11] 3.53 µM | [12] 1.81 µM | [13] 3.75 µM | [14] 10.8 µM | [15] 20.7 µM | [16] 19.2 µM | [17] 1.64 µM | [18] 18.8 µM | [19] 15.9 µM | [20] 4.47 µM

O=C(O)CN1C(=O)C(Cc2ccc(O)cc2)N=C(c2cccc(O)c2)c2ccccc21 (stereo not given)
inactive: [1] > 100 µM | [2] > 100 µM | [3] > 100 µM | [4] > 100 µM | [5] > 100 µM | [6] > 100 µM | [7] > 100 µM | [8] > 100 µM | [9] > 100 µM | [10] > 100 µM | [11] > 100 µM | [12] > 100 µM | [13] > 100 µM | [14] 11.5 µM | [15] > 100 µM | [16] 12 µM | [17] > 100 µM | [18] > 100 µM | [19] > 100 µM | [20] > 100 µM

CC1(C)OC1CC/C(=C/CBr)CBr (stereo not given)
inactive: [1] 18.1 µM | [2] 19 µM | [3] 14.4 µM | [4] 14.9 µM | [5] 18.2 µM | [6] 15.2 µM | [7] 15.8 µM | [8] 16.7 µM | [9] 15.6 µM | [10] 16.9 µM | [11] 22.3 µM | [12] 17 µM | [13] 10.2 µM | [14] 15.3 µM | [15] 14.1 µM | [16] 21.4 µM | [17] 15 µM | [18] 18.1 µM | [19] 20.9 µM | [20] 15.4 µM

Nc1c(C(=O)O)nnc2cc(Cl)ccc12
inactive: [1] > 100 µM | [2] > 100 µM | [3] > 100 µM | [4] > 100 µM | [5] > 100 µM | [6] > 100 µM | [7] > 100 µM | [8] > 100 µM | [9] > 100 µM | [10] 97.5 µM | [11] > 100 µM | [12] > 100 µM | [13] > 100 µM | [14] > 100 µM | [15] > 100 µM | [16] 85.3 µM | [17] > 100 µM | [18] > 100 µM | [19] > 100 µM | [20] > 100 µM

O=C(Nc1nnc(-c2ccccc2)o1)C(SC(=S)N1CCCC1)c1ccccc1 (stereo not given)
inactive: [1] 34.2 µM | [2] 36.8 µM | [3] 13.3 µM | [4] 35.1 µM | [5] 51.9 µM | [6] 38.5 µM | [7] 24.4 µM | [8] 23.1 µM | [9] 27.8 µM | [10] 26.2 µM | [11] 45 µM | [12] 38.7 µM | [13] 14.1 µM | [14] 32.1 µM | [15] 22.9 µM | [16] 27.1 µM | [17] 31.3 µM | [18] 22.3 µM | [19] 30.6 µM | [20] 26.4 µM

COc1cc2cc[n+](C)c(Cc3ccc(Oc4cc(Cc5c6cc(OC)c(OC)cc6cc[n+]5C)ccc4OC)cc3)c2cc1OC
inactive: [1] > 100 µM | [2] > 100 µM | [3] > 100 µM | [4] > 100 µM | [5] 40.3 µM | [6] > 100 µM | [7] > 100 µM | [8] > 100 µM | [9] 91.4 µM | [10] > 100 µM | [11] > 100 µM | [12] > 100 µM | [13] 79.8 µM | [14] > 100 µM | [15] 59.2 µM | [16] > 100 µM | [17] > 100 µM | [18] > 100 µM | [19] > 100 µM | [20] > 100 µM
